By melting point is commonly meant the temperature of the solid-liquid transition.

`c1ccc(-c2nn3c(c2-c2ccnc4cc(OCCN5CCOCC5)ccc24)CCCCC3)nc1` [Example 4, 3-[7-(2-Morpholin-4-yl-ethoxy)-quinolin-4-yl]-2-pyridin-2-yl-5,6,7,8-tetrahydro-4H-pyrazolo[1,5-a]azepine]: the melting point was 157 to 159 °C.

The record behind these values is patent US20060079680A1, “Pyrazoloazepine compounds as pharmaceutical agents” (Eli Lilly and Company Patent Division, priority 2002, published 2006).
